The values that follow come from publication PMC2995738, “In Vitro and In Vivo Anti-Inflammatory Activity of 17-O-Acetylacuminolide through the Inhibition of Cytokines, NF-κB Translocation and IKKβ Activity” (PLoS ONE, 2010).

In this assay the target is T1, IKKβ (Homo sapiens, UniProt O14920).
T1 construct: gene IKBKB; Human, recombinant IKKβ
T1 sequence (O14920 1-756): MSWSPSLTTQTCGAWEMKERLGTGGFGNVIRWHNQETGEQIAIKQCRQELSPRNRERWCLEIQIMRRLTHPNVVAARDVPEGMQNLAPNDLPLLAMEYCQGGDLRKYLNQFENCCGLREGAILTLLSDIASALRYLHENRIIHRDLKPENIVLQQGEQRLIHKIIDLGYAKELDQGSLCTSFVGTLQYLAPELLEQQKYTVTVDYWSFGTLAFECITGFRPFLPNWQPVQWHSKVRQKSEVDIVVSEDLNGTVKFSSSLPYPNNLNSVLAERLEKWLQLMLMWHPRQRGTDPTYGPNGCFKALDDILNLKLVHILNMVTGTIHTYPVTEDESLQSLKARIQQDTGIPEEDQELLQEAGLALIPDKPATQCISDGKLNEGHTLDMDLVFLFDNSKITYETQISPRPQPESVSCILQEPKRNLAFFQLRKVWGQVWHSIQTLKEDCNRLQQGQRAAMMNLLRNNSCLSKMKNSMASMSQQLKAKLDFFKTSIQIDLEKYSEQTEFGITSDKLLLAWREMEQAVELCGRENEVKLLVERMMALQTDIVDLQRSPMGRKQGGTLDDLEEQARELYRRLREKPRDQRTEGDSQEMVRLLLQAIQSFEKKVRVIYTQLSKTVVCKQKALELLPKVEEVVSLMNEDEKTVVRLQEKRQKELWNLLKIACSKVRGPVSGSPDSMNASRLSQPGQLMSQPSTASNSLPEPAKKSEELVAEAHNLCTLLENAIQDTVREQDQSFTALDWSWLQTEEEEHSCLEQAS
As to the kind of experiment: K-LISA IKKβ inhibitor screening kit (ELISA of GST-IκBα phosphorylation by recombinant IKKβ). Type of assay: biochemical.

`CC(=O)OC[C@@]12CC[C@H]3C(C)(C)CCC[C@]3(C)[C@H]1C[C@@H](C1=CC(=O)O[C@H]1O)O2` [AA, (12S)-17-acetoxy-8a,12-epoxy-16(R)-hydroxylabd-13(14)Z-en-15,16-olide]: the EC50 is 13.2 µM.
